Results from ChEMBL document CHEMBL5550106, “Recent advances in the exploration of oxazolidinone scaffolds from compound development to antibacterial agents and other bioactivities” (Eur J Med Chem, 2024).
≈ marks a conversion by molar mass, not a printed value.

Legend:
Escherichia coli [1] = assay: Antibacterial activity against Escherichia coli MG1655 in presence of polymyxin B nonapeptide; assay type: functional
Escherichia coli [2] = assay: Antibacterial activity against efflux pump-efficient Escherichia coli MG1655 assessed as bacterial growth inhibition; assay type: functional
Escherichia coli [3] = assay: Antimicrobial activity against wild type Escherichia coli MG1655 assessed as inhibition of microbial growth; assay type: functional
Staphylococcus aureus [4] = assay: Antibacterial activity against Staphylococcus aureus assessed as reduction in bacterial growth incubated for 24 hrs by broth microdilution method; assay type: functional
Staphylococcus aureus [5] = assay: Antibacterial activity against methicillin-resistant Staphylococcus aureus assessed as reduction in microbial growth by CLSI based broth microdilution method; assay type: functional
Staphylococcus aureus [6] = assay: Antibacterial activity against Staphylococcus aureus assessed as reduction in microbial growth by CLSI based broth microdilution method; assay type: functional
[7] = test system: Staphylococcus epidermidis; assay: Antibacterial activity against Methicillin-resistant Staphylococcus epidermidis assessed as bacterial growth inhibition; assay type: functional
Staphylococcus aureus [8] = assay: Antibacterial activity against Linezolid-resistant Staphylococcus aureus assessed as reduction in bacterial growth; assay type: functional
[9] = test system: Staphylococcus epidermidis; assay: Antibacterial activity against linezolid-resistant Staphylococcus epidermidis assessed as reduction in bacterial growth; assay type: functional
[10] = test system: Staphylococcus epidermidis; assay: Antibacterial activity against Staphylococcus epidermidis assessed as reduction in microbial growth after 24 hrs by CLSI based microdilution method; assay type: functional
NCI-H460 = assay: Antiproliferative activity against human NCI-H460 cells assessed as inhibition of cell growth by MTT assay; assay type: functional, cell-based
MGC-803 = assay: Antiproliferative activity against human MGC-803 cells assessed as reduction in cell growth by MTT assay; assay type: functional, cell-based
L02 = assay: Antiproliferative activity against human L02 cells assessed as inhibition of cell growth incubated for 24 hrs by MTT assay; assay type: functional, cell-based; settings: L02, 24 h
SK-OV-3 = assay: Antiproliferative activity against human SK-OV-3 cells assessed as reduction in cell viability incubated for 24 hrs by CCK8 assay; assay type: functional, cell-based; settings: SK-OV-3, 24 h

**Q.** Which MIC (Escherichia coli [1]) does the source give for `O=C1O[C@@H](CO)CN1c1ccc(-c2ccc(F)c(O)c2)c(F)c1` here?
**A.** 16 µg/mL

**Q.** And the MIC (Escherichia coli [2])?
**A.** 16 µg/mL (≈ 49.8 µM)

**Q.** What about the MIC (Escherichia coli [3]) of the same compound?
**A.** > 64 µg/mL

**Q.** What about the MIC (Staphylococcus aureus [4]) of the same compound?
**A.** 2 µg/mL (≈ 6.23 µM)

**Q.** `NCc1ccc(-c2ccc(N3C[C@H](CO)OC3=O)cc2F)cc1O` was tested. Which MIC (Escherichia coli [1]) did it give?
**A.** 32 µg/mL

**Q.** What about the MIC (Escherichia coli [2]) of the same compound?
**A.** 8 µg/mL (≈ 24.1 µM)

**Q.** And the MIC (Escherichia coli [3])?
**A.** 84 µg/mL

**Q.** What about the MIC (Staphylococcus aureus [4]) of the same compound?
**A.** 2.8 µg/mL (≈ 8.43 µM)

**Q.** Which MIC (Staphylococcus aureus [5]) does the source give for `CC(=O)NC[C@H]1CN(c2ccc(-c3ccc4c(c3)CC3(C(=O)NC(=O)NC3=O)C3COCCN43)c(F)c2)C(=O)O1` (some centres not stated) here?
**A.** 4 µg/mL

**Q.** What about the MIC (Staphylococcus aureus [6]) of the same compound?
**A.** 4 µg/mL

**Q.** And the MIC [7]?
**A.** 2 µg/mL (≈ 3.63 µM)

**Q.** And the MIC (Staphylococcus aureus [8])?
**A.** 32 µg/mL (≈ 58 µM)

**Q.** And the MIC [9]?
**A.** 32 µg/mL (≈ 58 µM)

**Q.** What about the MIC [10] of the same compound?
**A.** 4 µg/mL

**Q.** How did the MIC (Staphylococcus aureus [5]) turn out when `O=C1NC(=O)C2(Cc3cc(-c4ccc(N5C[C@H](CO)OC5=O)cc4F)ccc3C3CCCCC32)C(=O)N1` (some centres not stated) was run?
**A.** 2 µg/mL

**Q.** And the MIC (Staphylococcus aureus [6])?
**A.** 4 µg/mL

**Q.** And the MIC [7]?
**A.** < 1 µg/mL

**Q.** What about the MIC (Staphylococcus aureus [8]) of the same compound?
**A.** 32 µg/mL (≈ 63.1 µM)

**Q.** What about the MIC [9] of the same compound?
**A.** 32 µg/mL (≈ 63.1 µM)

**Q.** What about the MIC [10] of the same compound?
**A.** 2 µg/mL

**Q.** With `CC(C)c1ccc2c(c1)CCC1[C@](C)(C(=O)OCC(O)CNc3ccc(F)cc3)CCC[C@]21C` (some centres not stated) as the compound, how does the IC50 (NCI-H460) read?
**A.** ≥ 15.6 µM

**Q.** And the IC50 (MGC-803)?
**A.** 7.1 µM

**Q.** What about the IC50 (L02) of the same compound?
**A.** ≥ 28.3 µM

**Q.** And the IC50 (SK-OV-3)?
**A.** ≥ 14.9 µM

**Q.** With `CC(C)c1ccc2c(c1)CCC1[C@](C)(C(=O)OCC(O)CNc3cccc(F)c3)CCC[C@]21C` (some centres not stated) as the compound, how does the IC50 (NCI-H460) read?
**A.** ≥ 15.6 µM

**Q.** And the IC50 (MGC-803)?
**A.** 7.1 µM

**Q.** What about the IC50 (L02) of the same compound?
**A.** ≥ 28.3 µM

**Q.** And the IC50 (SK-OV-3)?
**A.** ≥ 14.9 µM

**Q.** Which results are given for `CC(=O)NC[C@H]1CN(c2ccc(-c3ccc4c(c3)CC3(C(=O)NC(=O)NC3=O)C3CCCCN43)c(F)c2)C(=O)O1` (some centres not stated)?
**A.** MIC (Staphylococcus aureus [5]): < 1 µg/mL; MIC (Staphylococcus aureus [6]): 2 µg/mL; MIC [7]: < 1 µg/mL; MIC (Staphylococcus aureus [8]): 16 µg/mL (≈ 29.1 µM); MIC [9]: > 32 µg/mL; MIC [10]: 2 µg/mL

**Q.** Which results are given for `COC(=O)NC[C@H]1CN(c2ccc(-c3ccc4c(c3)CC3(C(=O)NC(=O)NC3=O)C3COCCN43)c(F)c2)C(=O)O1` (some centres not stated)?
**A.** MIC (Staphylococcus aureus [5]): 4 µg/mL; MIC (Staphylococcus aureus [6]): 4 µg/mL; MIC [7]: 2 µg/mL (≈ 3.52 µM); MIC (Staphylococcus aureus [8]): > 32 µg/mL; MIC [9]: 32 µg/mL (≈ 56.4 µM); MIC [10]: 4 µg/mL

**Q.** `Cc1ccccc1N1CC(COC(=O)[C@]2(C)CCC[C@]3(C)c4ccc(C(C)C)cc4CCC23)OC1=O` (some centres not stated) was tested. Which IC50 (NCI-H460) did it give?
**A.** ≥ 4.3 µM

**Q.** And the IC50 (MGC-803)?
**A.** 3.82 µM

**Q.** And the IC50 (L02)?
**A.** ≥ 26.4 µM

**Q.** What about the IC50 (SK-OV-3) of the same compound?
**A.** ≥ 4.1 µM

**Q.** Which results are given for `O=C1O[C@@H](CO)CN1c1ccc(-c2cccc(O)c2F)c(F)c1`?
**A.** MIC (Escherichia coli [1]): 32 µg/mL; MIC (Escherichia coli [2]): 32 µg/mL (≈ 99.6 µM); MIC (Escherichia coli [3]): > 256 µg/mL; MIC (Staphylococcus aureus [4]): 2 µg/mL (≈ 6.23 µM)

**Q.** For `O=C1NC(=O)C2(Cc3cc(-c4ccc(N5C[C@H](CO)OC5=O)cc4F)ccc3N3CCCCC32)C(=O)N1` (some centres not stated), which MIC (Staphylococcus aureus [5]) is on record?
**A.** 2 µg/mL

**Q.** What about the MIC (Staphylococcus aureus [6]) of the same compound?
**A.** 4 µg/mL

**Q.** And the MIC [7]?
**A.** < 1 µg/mL

**Q.** What about the MIC (Staphylococcus aureus [8]) of the same compound?
**A.** 16 µg/mL (≈ 31.5 µM)

**Q.** What about the MIC [9] of the same compound?
**A.** 32 µg/mL (≈ 62.9 µM)

**Q.** And the MIC [10]?
**A.** 2 µg/mL

**Q.** Which results are given for `C#Cc1cccc(N2CC(COC(=O)[C@]3(C)CCC[C@]4(C)c5ccc(C(C)C)cc5CCC34)OC2=O)c1` (some centres not stated)?
**A.** IC50 (NCI-H460): ≥ 4.3 µM; IC50 (MGC-803): 3.82 µM; IC50 (L02): ≥ 26.4 µM; IC50 (SK-OV-3): ≥ 4.1 µM

**Q.** With `Nc1cc(-c2ccc(N3C[C@H](CO)OC3=O)cc2F)ccc1O` as the compound, how does the MIC (Escherichia coli [1]) read?
**A.** 64 µg/mL

**Q.** What about the MIC (Escherichia coli [2]) of the same compound?
**A.** 16 µg/mL (≈ 50.3 µM)

**Q.** What about the MIC (Escherichia coli [3]) of the same compound?
**A.** > 64 µg/mL

**Q.** And the MIC (Staphylococcus aureus [4])?
**A.** 4 µg/mL (≈ 12.6 µM)

**Q.** Which results are given for `CC(C)c1ccc2c(c1)CCC1[C@](C)(C(=O)OCC3CN(c4ccccc4)C(=O)O3)CCC[C@]21C` (some centres not stated)?
**A.** IC50 (NCI-H460): ≥ 4.3 µM; IC50 (MGC-803): 3.82 µM; IC50 (L02): ≥ 26.4 µM; IC50 (SK-OV-3): ≥ 4.1 µM

**Q.** What does the source list for `NCc1cc(F)c(-c2ccc(N3C[C@H](CO)OC3=O)cc2F)cc1O`?
**A.** MIC (Escherichia coli [1]): 32 µg/mL; MIC (Escherichia coli [2]): 64 µg/mL (≈ 183 µM); MIC (Escherichia coli [3]): 64 µg/mL; MIC (Staphylococcus aureus [4]): 32 µg/mL (≈ 91.3 µM)

**Q.** How did the IC50 (NCI-H460) turn out when `COc1cccc(NCC(O)COC(=O)[C@]2(C)CCC[C@]3(C)c4ccc(C(C)C)cc4CCC23)c1` (some centres not stated) was run?
**A.** ≥ 15.6 µM

**Q.** And the IC50 (MGC-803)?
**A.** 7.1 µM

**Q.** And the IC50 (L02)?
**A.** ≥ 28.3 µM

**Q.** And the IC50 (SK-OV-3)?
**A.** ≥ 14.9 µM

**Q.** Which MIC (Escherichia coli [1]) does the source give for `O=C1O[C@@H](CO)CN1c1ccc(-c2cc(O)ccc2F)c(F)c1` here?
**A.** 16 µg/mL

**Q.** And the MIC (Escherichia coli [2])?
**A.** 16 µg/mL (≈ 49.8 µM)

**Q.** And the MIC (Escherichia coli [3])?
**A.** > 256 µg/mL

**Q.** And the MIC (Staphylococcus aureus [4])?
**A.** 2 µg/mL (≈ 6.23 µM)

**Q.** Which IC50 (NCI-H460) does the source give for `COc1ccc(N2CC(COC(=O)[C@]3(C)CCC[C@]4(C)c5ccc(C(C)C)cc5CCC34)OC2=O)cc1` (some centres not stated) here?
**A.** ≥ 4.3 µM

**Q.** What about the IC50 (MGC-803) of the same compound?
**A.** 3.82 µM

**Q.** And the IC50 (L02)?
**A.** ≥ 26.4 µM

**Q.** And the IC50 (SK-OV-3)?
**A.** ≥ 4.1 µM

**Q.** How did the IC50 (NCI-H460) turn out when `CC(C)c1ccc2c(c1)CCC1[C@](C)(C(=O)OCC(O)CNc3ccccc3)CCC[C@]21C` (some centres not stated) was run?
**A.** ≥ 15.6 µM

**Q.** And the IC50 (MGC-803)?
**A.** 7.1 µM

**Q.** What about the IC50 (L02) of the same compound?
**A.** ≥ 28.3 µM

**Q.** What about the IC50 (SK-OV-3) of the same compound?
**A.** ≥ 14.9 µM

**Q.** What does the source list for `Cc1cccc(NCC(O)COC(=O)[C@]2(C)CCC[C@]3(C)c4ccc(C(C)C)cc4CCC23)c1` (some centres not stated)?
**A.** IC50 (NCI-H460): ≥ 15.6 µM; IC50 (MGC-803): 7.1 µM; IC50 (L02): ≥ 28.3 µM; IC50 (SK-OV-3): ≥ 14.9 µM

**Q.** What does the source list for `Cc1cccc(N2CC(COC(=O)[C@]3(C)CCC[C@]4(C)c5ccc(C(C)C)cc5CCC34)OC2=O)c1` (some centres not stated)?
**A.** IC50 (NCI-H460): ≥ 4.3 µM; IC50 (MGC-803): 3.82 µM; IC50 (L02): ≥ 26.4 µM; IC50 (SK-OV-3): ≥ 4.1 µM

**Q.** For `CC(C)c1ccc2c(c1)CCC1[C@](C)(C(=O)OCC3CN(c4ccc(F)cc4)C(=O)O3)CCC[C@]21C` (some centres not stated), which IC50 (NCI-H460) is on record?
**A.** ≥ 4.3 µM

**Q.** What about the IC50 (MGC-803) of the same compound?
**A.** 3.82 µM

**Q.** And the IC50 (L02)?
**A.** ≥ 26.4 µM

**Q.** What about the IC50 (SK-OV-3) of the same compound?
**A.** ≥ 4.1 µM

**Q.** Which results are given for `Cc1ccc(N2CC(COC(=O)[C@]3(C)CCC[C@]4(C)c5ccc(C(C)C)cc5CCC34)OC2=O)cc1` (some centres not stated)?
**A.** IC50 (NCI-H460): ≥ 4.3 µM; IC50 (MGC-803): 3.82 µM; IC50 (L02): ≥ 26.4 µM; IC50 (SK-OV-3): ≥ 4.1 µM
